Broadly, the IC50 is the point on the concentration scale where inhibition reaches its midpoint.

Experiment [1] in a line: Cytotoxicity against rat L-6 cell line. In kind it is functional, cell-based. The conditions noted are these: L6.
In a further experiment the test system is Plasmodium falciparum. The experiment in a line: In vitro antiplasmodial activity for chloroquine-resistant Plasmodium falciparum FcB1. The class given is functional, organism-based.
The species entered for another experiment is Rattus norvegicus. The experiment in a line: Selectivity Index is expressed as the ratio of cytotoxicity (IC50) against rat L-6 cell line to that of antiplasmodial activity (IC50) of chloroquine-resistant strain FcB1 of Plasmodium falciparum. In kind it is functional.

`CN[C@H]1CC[C@@]2(C)C(=CC[C@H]3[C@@H]4CC[C@@H]5[C@H](C)N(C)C[C@@]54[C@H](OC(=O)CC=C(C)C)C[C@@H]32)C1`: the IC50 came out at 7.49 µM in experiment [1] and 0.97 µM in the experiment on Plasmodium falciparum. Further, in the experiment listed under Rattus norvegicus, the Selectivity index stood at 7.7.
In the case of `CC(C)=CCC(=O)O[C@@H]1C[C@H]2[C@@H](CC=C3C[C@@H](N(C)C)CC[C@@]32C)[C@@H]2CC[C@@H]3[C@H](C)N(C)C[C@]312`, the figures for the IC50 (in experiment [1]; in the experiment with Plasmodium falciparum) were 5.13 µM and 1.13 µM, respectively. For the same compound, in the experiment filed under Rattus norvegicus, the Selectivity index amounted to 4.5.
Take `C[C@H]1[C@H]2CC[C@H]3[C@@H]4CC=C5C[C@@H](N(C)C)CC[C@]5(C)[C@H]4CC[C@]23CN1C` [CONESSINE]: the IC50 was 14.6 µM in experiment [1] and 1.04 µM with Plasmodium falciparum. Further, in the experiment filed under Rattus norvegicus, the Selectivity index was 14.
As to `CN[C@H]1CC[C@@]2(C)C(=CC[C@H]3[C@@H]4CC[C@@H]5[C@H](C)N(C)C[C@@]54CC[C@@H]32)C1` [ISOCONESSIMINE], the figures for the IC50 (in experiment [1]; in the experiment with Plasmodium falciparum) were 36.6 µM and 3.39 µM, respectively. Further, the Selectivity index in the experiment listed under Rattus norvegicus is 10.8.

(Values after ChEMBL document CHEMBL1139558, “Isolation, characterization and antiplasmodial activity of steroidal alkaloids from Funtumia elastica (Preuss) Stapf” (Bioorg Med Chem Lett, 2005).)
